# Experimental data as given in US20220249441A1, “Homodimeric Tobramycin Adjuvant Repurposes Novobiocin as an Effective Antibacterial Agent Against Gram-Negative Bacteria” (priority 2019, published 2022).
# How the values were obtained:
# P. aeruginosa = assay: Checkerboard assay (antibiotic + adjuvant combination MIC); assay type: cell-based, Pseudomonas aeruginosa; conditions: for MIC of Novobiocin +Compound 1: 1 at ≤7.1 μM; for MIC of Novobiocin + adjuvant (7.1 μM): PMBN or 1 at 7.1 μM
# A. baumannii = assay: as above; assay type: cell-based, Acinetobacter baumannii; conditions: for MIC of Novobiocin +Compound 1: 1 at ≤7.1 μM; for Fold Potentiation: novobiocin + 1 at ≤7.1 μM
# Method: (§1) Antimicrobial Susceptibility Assay. The in vitro antimicrobial activity of all compounds/antibiotics against a panel of bacteria was evaluated by microbroth dilution method in accordance with the Clinical and Laboratory Standards Institute (CLSI) guidelines (using ATCC strains as quality control strains) (54). Overnight grown bacterial cultures were diluted in saline to achieve a 0.5 McFarland turbidity, followed by 1:50 dilution in Mueller-Hinton broth (MHB) for inoculation to a final concentration of approximately 5×10^5 CFU/mL. […] The lowest concentration that prevented the visible growth of bacteria was defined as the MIC for each antimicrobial agent. The broth with or without bacterial cells was used as positive or negative control, respectively.
# (§2) Checkerboard Assay. Combination studies with different antibiotics were performed in 96-well plates as previously described (19). Briefly, the antibiotic of interest was serially diluted in MHB along the abscissa while the adjuvant (tobramycin homodimer) was serially diluted in MHB along the ordinate. This creates a 10×7 matrices wherein each well consists of a combination of different antibiotic and adjuvant concentrations. Overnight grown bacterial cultures were diluted in saline to achieve a 0.5 McFarland turbidity, followed by 1:50 dilution in Mueller-Hinton broth (MHB) for inoculation to a final concentration of approximately 5×10^5 CFU/mL. […] MIC was recorded as wells with the lowest concentration of drugs with no bacterial growth. The fractional inhibitory concentration (FIC) for each antibiotic was calculated by dividing the MIC of the antibiotic in the presence of adjuvant by the MIC of the antibiotic alone. Similarly, the FIC of adjuvant was calculated by dividing the MIC of the adjuvant in the presence of antibiotic by the MIC of the adjuvant alone. FIC index is the sum of both FICs. FIC indices of ≤0.5 were deemed synergistic; >0.5-4, no interaction; and >4, antagonistic.
# E. coli = assay: as above; assay type: cell-based, Escherichia coli; conditions: for MIC of Novobiocin +Compound 1: 1 at ≤7.1 μM; for MIC of Novobiocin + adjuvant (7.1 μM): PMBN or 1 at 7.1 μM; for Fold Potentiation: novobiocin + 1 at ≤7.1 μM
# Method: as §1, §2
# K. pneumoniae = assay: as above; assay type: cell-based, Klebsiella pneumoniae; conditions: for MIC of Novobiocin +Compound 1: 1 at ≤7.1 μM; for Fold Potentiation: novobiocin + 1 at ≤7.1 μM
# Method: as §1, §2
# E. cloacae = assay: as above; assay type: cell-based, Enterobacter cloacae; conditions: for MIC of Novobiocin +Compound 1: 1 at ≤7.1 μM; for Fold Potentiation: novobiocin + 1 at ≤7.1 μM
# Method: as §1, §2
# E. faecium ATCC 27270 = assay: MIC and combination against Gram-positive bacteria; assay type: cell-based
# Method: (§3) Next, we investigated whether tobramycin by itself would potentiate novobiocin against Gram-negative bacteria.
# as §1
# MRSA ATCC 33592 = assay: MIC and combination against Gram-positive bacteria; assay type: cell-based; conditions: MRSA ATCC 33592
# Method: as §3, §1
# MRSE 61589 = assay: MIC and combination against Gram-positive bacteria; assay type: cell-based
# Method: as §3, §1
# MDR A. baumannii = assay: Galleria mellonella in vivo larvae-infection model; conditions: single dose 100 mg/kg, agent alone; after 24 h
# Method: Galleria mellonella In vivo Larvae-Infection Model. In vivo synergistic effects were determined using Galleria mellonella infection model, as previously described (49). Briefly, larvae were purchased from The Worm Lady Live Feeder (ON, Canada), stored in their natural habitat at 16° C., and used within 10 days of delivery. The larvae (average weight of 250 mg) were used for tolerability and efficacy studies. Tolerability study was performed by injecting a 10 μL aliquot of antimicrobial agents only at concentrations equivalent to 100 mg/kg or 200 mg/kg. The larvae (ten in each group) were incubated at 37° C. and monitored for 96 h. For efficacy studies, the virulence and bacterial load required to kill 100% of the larvae within 24 h (with no treatment) was first determined, which is approximately 10 CFU. Overnight grown culture of respective MDR A. baumannii isolate was standardized to 0.5 McFarland standard and diluted in PBS to a final concentration of 10^3 CFU/mL. A 10 μL aliquot of this solution (˜10 CFU) was injected into each larva and incubated for 3 h at 37° C. […] Larvae treated with 10 μL of PBS or high concentrations of test antibiotics served as negative and positive control, respectively. The larvae were incubated at 37° C. in Petri dishes lined with filter paper and scored for survivability every 6 h for up to 36 h. […]
# A. baumannii ATCC 17978 = assay: microbe, parasite or virus in culture; assay type: cell-based, Acinetobacter baumannii; conditions: seven serial passages
# Method: Development of Resistance Study. […] Tobramycin and colistin were included as controls. At 24-hour intervals, the cultures were assessed for growth. […] This serial passaging was repeated for 8 days.
structure (smiles),measurement,setting,value
"NC[C@H]1O[C@H](O[C@H]2[C@H](OCCCCc3cn(CCCCO[C@@H]4[C@@H](O[C@H]5O[C@H](CO)[C@@H](O)[C@H](N)[C@H]5O)[C@H](N)C[C@H](N)[C@H]4O[C@H]4O[C@H](CN)[C@@H](O)C[C@H]4N)nn3)[C@@H](O[C@H]3O[C@H](CO)[C@@H](O)[C@H](N)[C@H]3O)[C@H](N)C[C@@H]2N)[C@H](N)C[C@@H]1O.O=C(O)C(F)(F)F.O=C(O)C(F)(F)F.O=C(O)C(F)(F)F.O=C(O)C(F)(F)F.O=C(O)C(F)(F)F.O=C(O)C(F)(F)F.O=C(O)C(F)(F)F.O=C(O)C(F)(F)F.O=C(O)C(F)(F)F.O=C(O)C(F)(F)F [Compound 1, Tobramycin Homodimer 1]",MIC of Novobiocin +Compound 1,P. aeruginosa; P. aeruginosa 259-96918,8 µg/mL
same,MIC of Novobiocin +Compound 1,P. aeruginosa; P. aeruginosa 260-97103,1 µg/mL
same,MIC of Novobiocin +Compound 1,P. aeruginosa; P. aeruginosa 262-101856,8 µg/mL
same,MIC of Novobiocin +Compound 1,P. aeruginosa; P. aeruginosa 264-104354,8 µg/mL
same,MIC of Novobiocin +Compound 1,P. aeruginosa; P. aeruginosa 91433,1 µg/mL
same,MIC of Novobiocin +Compound 1,P. aeruginosa; P. aeruginosa 100036,8 µg/mL
same,MIC of Novobiocin +Compound 1,P. aeruginosa; P. aeruginosa 101243,1 µg/mL
same,MIC of Novobiocin +Compound 1,P. aeruginosa; P. aeruginosa 101885,8 µg/mL
same,MIC of Novobiocin +Compound 1,P. aeruginosa; P. aeruginosa 114228,16 µg/mL
same,MIC of Novobiocin +Compound 1,P. aeruginosa; P. aeruginosa PAO1,4 µg/mL
same,MIC of Novobiocin + adjuvant (7.1 μM),P. aeruginosa; PA 91433,1 µg/mL
same,MIC of Novobiocin + adjuvant (7.1 μM),P. aeruginosa; PA 101243,1 µg/mL
same,MIC of Novobiocin + adjuvant (7.1 μM),P. aeruginosa; PA 114228,16 µg/mL
same,MIC of Novobiocin +7.1 μM Compound 1,P. aeruginosa; PAO1 (wild-type),4 µg/mL
same,MIC of Novobiocin + adjuvant (7.1 μM),P. aeruginosa; PAO1,4 µg/mL
same,MIC of Novobiocin +7.1 μM Compound 1,P. aeruginosa; PAO200 (efflux-deficient),0.125 µg/mL
same,MIC of Novobiocin +7.1 μM Compound 1,P. aeruginosa; PAO750 (efflux-deficient),0.125 µg/mL
same,MIC of Novobiocin +Compound 1,A. baumannii; A. baumannii 027,0.5 µg/mL
same,Fold Potentiation,A. baumannii; A. baumannii 027,16 fold
same,MIC of Novobiocin +Compound 1,A. baumannii; A. baumannii 031,0.5 µg/mL
same,Fold Potentiation,A. baumannii; A. baumannii 031,16 fold
same,MIC of Novobiocin +Compound 1,A. baumannii; A. baumannii 92247,0.25 µg/mL
same,Fold Potentiation,A. baumannii; A. baumannii 92247,16 fold
same,MIC of Novobiocin +Compound 1,A. baumannii; A. baumannii 110193,1 µg/mL
same,Fold Potentiation,A. baumannii; A. baumannii 110193,256 fold
same,MIC of Novobiocin +Compound 1,A. baumannii; A. baumannii ATCC 17978,0.5 µg/mL
same,Fold Potentiation,A. baumannii; A. baumannii ATCC 17978,32 fold
same,MIC of Novobiocin +Compound 1,A. baumannii; A. baumannii LAC-4,0.5 µg/mL
same,Fold Potentiation,A. baumannii; A. baumannii LAC-4,16 fold
same,MIC of Novobiocin + adjuvant (7.1 μM),"A. baumannii; AB 92247, PMBN or 1 at 7.1 μM",0.25 µg/mL
same,potentiation of novobiocin,A. baumannii; colistin-resistant mutant B of A. baumannii ATCC 17978,did not potentiate
same,fold potentiation of novobiocin,A. baumannii; novobiocin-resistant mutant A of A. baumannii ATCC 17978,16 fold
same,MIC of novobiocin in the presence of compound 1,"A. baumannii; wild-type and MDR A. baumannii clinical isolates, ≤7.1 μM of compound 1",≤ 1 µg/mL
same,MIC of Novobiocin +Compound 1,E. coli; E. coli 94393,2 µg/mL
same,MIC of Novobiocin + adjuvant (7.1 μM),E. coli; E. coli 94393,2 µg/mL
same,Fold Potentiation,E. coli; E. coli 94393,64 fold
same,MIC of Novobiocin +Compound 1,E. coli; E. coli 94474,16 µg/mL
same,MIC of Novobiocin + adjuvant (7.1 μM),E. coli; E. coli 94474,16 µg/mL
same,Fold Potentiation,E. coli; E. coli 94474,16 fold
same,MIC of Novobiocin +Compound 1,E. coli; E. coli 107115,8 µg/mL
same,Fold Potentiation,E. coli; E. coli 107115,16 fold
same,MIC of Novobiocin +Compound 1,E. coli; E. coli ATCC 25922,2 µg/mL
same,Fold Potentiation,E. coli; E. coli ATCC 25922,32 fold
same,MIC of Novobiocin +Compound 1,K. pneumoniae; K. pneumoniae 113250,16 µg/mL
same,Fold Potentiation,K. pneumoniae; K. pneumoniae 113250,32 fold
same,MIC of Novobiocin +Compound 1,K. pneumoniae; K. pneumoniae 113254,16 µg/mL
same,Fold Potentiation,K. pneumoniae; K. pneumoniae 113254,16 fold
same,MIC of Novobiocin +Compound 1,K. pneumoniae; K. pneumoniae 116381,8 µg/mL
same,Fold Potentiation,K. pneumoniae; K. pneumoniae 116381,128 fold
same,MIC of Novobiocin + adjuvant (7.1 μM),"K. pneumoniae; KP 113254, PMBN or 1 at 7.1 μM",16 µg/mL
same,MIC of Novobiocin +Compound 1,E. cloacae; E. cloacae 117029,8 µg/mL
same,Fold Potentiation,E. cloacae; E. cloacae 117029,128 fold
same,MIC of Novobiocin +Compound 1,E. cloacae; E. cloacae 118568,32 µg/mL
same,Fold Potentiation,E. cloacae; E. cloacae 118568,32 fold
same,MIC of Novobiocin +Compound 1,E. cloacae; E. cloacae 121187,8 µg/mL
same,Fold Potentiation,E. cloacae; E. cloacae 121187,8 fold
same,MIC of Novobiocin + adjuvant (7.1 μM),"E. cloacae; EC 118568, PMBN or 1 at 7.1 μM",32 µg/mL
same,effect of addition of compound 1 on activity of novobiocin,E. faecium ATCC 27270,did not improve
same,effect of addition of compound 1 on activity of novobiocin,MRSA ATCC 33592,did not improve
same,effect of addition of compound 1 on activity of novobiocin,MRSE 61589,did not improve
same,mortality of infected larvae,MDR A. baumannii,100%
same,resistance phenotype after exposure to sub-MIC levels,A. baumannii ATCC 17978,did not generate tobramycin-resistant phenotype
